Source: ChEMBL document CHEMBL1157293, “Sylviside, a diterpene glucoside derivative from Gnaphalium sylvaticum” (J Nat Prod, 2006)

Experiments:
HeLa [1] = test: Cytotoxicity against wild type human HeLa cells by MTT assay; type: functional, cell-based
HeLa [2] = test: Cytotoxicity against MDR1-G185 overexpressing human HeLa cells by MTT assay; type: functional, cell-based

Compound: C=C1[C@@H]2CC[C@H]3[C@]4(C)C[C@H](O[C@@H]5O[C@H](CO)[C@@H](O)[C@H](O)[C@H]5OC(=O)/C(C)=C\C)CC(C(=O)O)(C(=O)O)[C@H]4CC[C@]3(C2)[C@H]1O [SYLVISIDE]
- IC50 (HeLa [1]): 325 µM
- IC50 (HeLa [2]): 1.7 mM
